Assay in all cases: NCI-60 cell line screen, 48 h
Experiment [1] has as its system SK-MEL-28 melanoma.
The subject of experiment [2] is CCRF-CEM leukemia.
Experiment [3] deals with CAKI-1 renal.
For experiment [4], the system named is IGROV1 ovarian.
Experiment [5] deals with OVCAR-8 ovarian.
Experiment [6] deals with U251 CNS.
Experiment [7] relates to COLO 205 colon.
Experiment [8] deals with HCC-2998 colon.
For experiment [9], the system named is TK-10 renal.
Experiment [10] deals with BT-549 breast.

Experimental findings from PubChem BioAssay (NCI) are described below.

Where “and” joins values, the source holds several entries; their conditions need not be identical. Equal values may be shown once.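 Grown in 96-well plates, cells were treated for 48 hours with each compound at five concentrations. Insufficient inhibition: endpoint recorded as highest concentration tested. The concentration for 50% growth inhibition is given as GI50. TGI: total growth inhibition.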

Consider `CCCCCCCCCCCCOC1C(C(CC(=O)NCCN2CCCC2)NS(=O)(=O)c2cc(Cl)cc(Cl)c2)OC2OC(C)(C)OC21` (centres undefined), for which the GI50 is 1.94 µM and 1.59 µM in experiment [1]; 0.00586 µM in experiment [2]; 1.79 µM in experiment [3]; 1.95 µM in [4]; 2.21 µM in experiment [5]; 1.92 µM in [6]. In addition, the GI50 is 2.06 µM and 1.19 µM in [7]; 2.14 µM in [8]; 2 µM in [9]; 1.79 µM in experiment [10]. For the same compound, the TGI in experiment [1] is 3.55 µM and 3.1 µM; in [2], 0.0349 µM; in experiment [3] it was 3.4 µM; in experiment [4], 3.6 µM; in experiment [5], 4.88 µM; in [6], 3.58 µM. Further, the TGI was 4.4 µM and 2.66 µM in [7]; 4.56 µM in experiment [8]; 3.82 µM in experiment [9]; 3.24 µM in experiment [10].

`COc1ccc2c(Oc3ccc(NC(=O)c4c(C)n(CC(C)(C)O)n(-c5ccccc5)c4=O)nc3)ccnc2c1`: the GI50 in experiment [1] is 22.3 µM; in experiment [2] it was 18.2 µM; in experiment [3], 3.33 µM; in experiment [4], 12.3 µM; in experiment [5] it was 9.48 µM; in [6], 13.1 µM. The GI50 is over 73.4 µM in experiment [7], 34 µM in experiment [8], 5.92 µM in [9] and 22.7 µM in experiment [10]. For the same compound, the TGI in experiment [1] is over 100 µM; in experiment [2], over 100 µM; in experiment [3], over 27.7 µM; in experiment [4], over 100 µM; in [5], over 100 µM; in [6], over 100 µM. Also, the TGI in [7] is over 100 µM; in experiment [8], over 100 µM; in experiment [9], 19.8 µM; in experiment [10] it was over 66 µM.

Take `O=c1[nH]c(=O)n([C@H]2CCCO2)cc1F`: the GI50 in [1] is 1040 µM; in [2], 527 µM; in experiment [3] it was 2100 µM; in experiment [4] it was 2270 µM; in experiment [5] it was 2270 µM; in [6], over 4570 µM. The GI50 in [7] was 1090 µM; in [8], 1010 µM; in experiment [9], 1880 µM. The TGI in [1], in experiment [2], in experiment [3], in experiment [4], in [5] and in experiment [6] was over 5000 µM in each case. The TGI in experiment [7] was over 5000 µM; in experiment [8] it was over 3020 µM; in [9], over 5000 µM; in experiment [10] it was over 5000 µM.

As to `O=C(NO)c1ccc(CN(c2cnccn2)c2cnccn2)cc1`, the GI50 in experiment [1] was 11 µM; in [2], 11.2 µM; in experiment [3] it was 12.7 µM; in [4] it was 15.6 µM; in experiment [5] it was 3.75 µM; in [6], 7.74 µM. In addition, the GI50 is 2.96 µM in [7], 13.2 µM in [8], 11.3 µM in [9] and 13.8 µM in experiment [10]. The TGI was 36.4 µM in experiment [1]; over 100 µM in experiment [2]; 40.1 µM in [3]; 35.2 µM in experiment [4]; 17.2 µM in experiment [5]; 21.4 µM in [6]. In addition, the TGI in experiment [7] came out at 8.17 µM; in [8] it was 26.8 µM; in experiment [9] it was 42 µM; in experiment [10], 29.9 µM.

Take `O=C(N/N=C/c1c(Cl)cccc1Cl)c1ccc(C(F)(F)F)nc1Nc1cccc(C(F)(F)F)c1`: the GI50 in [1] is 1.82 µM; in experiment [2] it was 0.34 µM; in [3], 1.03 µM; in [4], 1.01 µM; in [5], 1.07 µM; in experiment [6], 0.588 µM. Further, the GI50 in experiment [7] is 0.67 µM; in experiment [8], 3.97 µM; in experiment [9] it was 2.87 µM; in experiment [10], 2.6 µM. For the same compound, the TGI in experiment [1] was over 37.5 µM; in experiment [2] it was 8.98 µM; in experiment [3], 13.8 µM; in [4] it was 13.9 µM; in [5], over 45.6 µM; in experiment [6], 12.8 µM. The TGI was 2.59 µM in experiment [7], over 100 µM in experiment [8], over 91.4 µM in experiment [9] and 9 µM in experiment [10].

On to `C[C@]12CC[C@@H]3c4ccc(O)c([N+](=O)[O-])c4CC[C@H]3[C@@H]1CC[C@@H]2NS(=O)(=O)c1cccc(Br)c1`, for which the GI50 in [1] was 1.85 µM; in experiment [2] it was 2.65 µM; in [3], 2.36 µM; in experiment [4], 3.22 µM; in [5], 2.92 µM; in experiment [6], 1.9 µM. Moreover, the GI50 was 2.78 µM in experiment [7], 2.06 µM in experiment [8], 2.92 µM in experiment [9] and 1.91 µM in [10]. Moreover, the TGI in experiment [1] turned out to be 3.67 µM; in experiment [2], 10.4 µM; in [3], 5.43 µM; in experiment [4], 9.35 µM; in experiment [5], 10.7 µM; in experiment [6] it was 4.28 µM. The TGI in [7] came out at 7.26 µM; in [8], 3.97 µM; in [9], 8.98 µM; in experiment [10], 3.93 µM.

For the compound `CC(C)C1=C2CCC3(C)C(CCC4C5C6OCC5(CCC6(C)C)CCC43C)C2(C)CC1` (centres undefined), the TGI is 32.8 µM in [1]; 31.9 µM in experiment [2]; 38.3 µM in experiment [3]; 29.2 µM in [4]; 34.4 µM in experiment [5]; 37 µM in experiment [6]. Also, the TGI worked out at 37.3 µM in experiment [7], 33.7 µM in experiment [8], 31 µM in experiment [9] and 52.2 µM in experiment [10].

As for `O=C(Nc1ccc(Cl)c(Cl)c1)Nc1ccccc1O`, the GI50 was 12.5 µM in experiment [1]; 3.35 µM in [2]; 3.72 µM in experiment [3]; 6.48 µM in experiment [4]; 5.1 µM in [5]; 6.41 µM in [6]. For the same compound, the GI50 in experiment [7] is 5.38 µM; in [8], 5.56 µM; in [9] it was 6.41 µM; in [10], 24.9 µM. Further, the TGI is 27.3 µM in experiment [1]; 68.7 µM in experiment [2]; 20.4 µM in experiment [3]; 29.3 µM in experiment [4]; 32.4 µM in experiment [5]; 25.3 µM in experiment [6]. The TGI in experiment [7] stood at 18.6 µM; in experiment [8], 19.6 µM; in [9], 28 µM; in [10], 91.3 µM.

As for `CC1C(=O)OC2CC[N+]3([O-])CC=C(COC(=O)C(C)(O)C1(C)O)C23` (centres undefined), the TGI in experiment [1], in [2], in [3], in experiment [4], in [5] and in experiment [6] was over 100 µM throughout. Further, the TGI in experiment [7], in [8], in experiment [9] and in [10] was over 100 µM each time.
